According to patent US20140249135A1, “PIM KINASE INHIBITORS AND METHODS OF THEIR USE” (NOVARTIS AG, priority 2007, published 2014):

How the values were obtained:
HEL 92.1.7 cells = assay: Cell proliferation assay (CellTiter-Glo), HEL 92.1.7; assay type: cell-based; details: Homo sapiens, read-out: EC50 (μM) HEL 92.1.7
In short: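 CellTiter-Glo luminescence was read after 3-day compound exposure at 37 °C of cells plated at 1000/well in RPMI1640 with 10% FBS. Signal was normalised between DMSO-treated and control-compound-treated wells. EC50 is the concentration giving 50% of maximal effect.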

[1] = target: T1, human full length PKCE enzyme (Homo sapiens, UniProt Q02156); assay: In vitro PKCE assay; assay type: biochemical; details: 10 nM enzyme, 40 uM peptide substrate, 20 uM ATP, KinaseGlo Plus readout; read-out: PKCε IC50
T1 construct: human full length PKCE enzyme purchased from InVitrogen; purchased InVitrogen
T1 sequence (Q02156 1-737): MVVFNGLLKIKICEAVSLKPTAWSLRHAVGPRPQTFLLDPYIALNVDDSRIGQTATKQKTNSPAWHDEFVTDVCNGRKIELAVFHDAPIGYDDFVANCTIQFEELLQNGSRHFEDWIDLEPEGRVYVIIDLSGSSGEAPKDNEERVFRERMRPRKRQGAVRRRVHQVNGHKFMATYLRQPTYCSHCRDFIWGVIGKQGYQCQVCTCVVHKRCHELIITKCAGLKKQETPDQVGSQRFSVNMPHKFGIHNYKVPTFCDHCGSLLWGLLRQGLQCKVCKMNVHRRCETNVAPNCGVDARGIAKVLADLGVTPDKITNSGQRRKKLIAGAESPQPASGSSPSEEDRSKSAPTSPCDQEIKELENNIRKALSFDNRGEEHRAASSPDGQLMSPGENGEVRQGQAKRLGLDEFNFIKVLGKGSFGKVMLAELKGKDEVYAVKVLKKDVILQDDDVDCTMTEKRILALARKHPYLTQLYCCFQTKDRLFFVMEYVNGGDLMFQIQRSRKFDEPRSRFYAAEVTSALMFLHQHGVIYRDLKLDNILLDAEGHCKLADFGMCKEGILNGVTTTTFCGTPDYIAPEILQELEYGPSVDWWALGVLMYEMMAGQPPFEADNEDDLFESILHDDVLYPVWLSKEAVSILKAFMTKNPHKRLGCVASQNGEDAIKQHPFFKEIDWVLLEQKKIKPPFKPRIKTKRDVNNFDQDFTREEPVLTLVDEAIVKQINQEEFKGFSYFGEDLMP

PC3 cells = assay: Cell proliferation assay (CellTiter-Glo), PC3; assay type: cell-based; details: Homo sapiens, PC-3
Procedure: HEL 92.1.7 cells (ATTC No. TIB-180, an erythroleukemia line derived from malignant peripheral blood), MV4-11 cells (ATCC No. CRL-9591, a human acute monocytic leukemia line) and PC3 cells (ATCC No. CRL-1435, a human prostatic adenocarcinoma line) were cultured in RPMI1640 supplemented with 10% FBS, sodium pyruvate and antibiotics. Cells were plated in the same medium at a density of 1000 cells per well into 96 well tissue culture plates, with outside wells vacant, on the day of assay.
Test compounds supplied in DMSO were diluted into DMSO at 500 times the desired final concentrations before dilution into culture media to 2 times final concentrations. Equal volumes of 2× compounds were added to the cells in 96 well plates and incubated at 37° C. for 3 days.
After 3 days plates were equilibrated to room temperature and equal volume of CellTiter-Glow Reagent (Promega) was added to the culture wells. The plates were agitated briefly and luminescent signal was measured with luminometer. The percent inhibition of the signal seen in cells treated with DMSO alone vs. cells treated with control compound was calculated and used to determine EC50 values (i.e., the concentration of a test compound that is required to obtain 50% of the maximum effect in the cells) for tested compounds, as shown in Example 763.

Pim1 kinase = Pim1 kinase (Homo sapiens, UniProt P11309); assay: Pim1 ATP depletion assay; assay type: biochemical; details: Pim1 ATP depletion assay; read-out: IC50 (μM) PIM1;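 also: Luciferase-luciferin luminescence readout of residual ATP after PIM1 transfers phosphate to a peptide substrate, 40 µM ATP added, reaction run to roughly half ATP consumption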
Sequence of Pim1 kinase (P11309 whole entry): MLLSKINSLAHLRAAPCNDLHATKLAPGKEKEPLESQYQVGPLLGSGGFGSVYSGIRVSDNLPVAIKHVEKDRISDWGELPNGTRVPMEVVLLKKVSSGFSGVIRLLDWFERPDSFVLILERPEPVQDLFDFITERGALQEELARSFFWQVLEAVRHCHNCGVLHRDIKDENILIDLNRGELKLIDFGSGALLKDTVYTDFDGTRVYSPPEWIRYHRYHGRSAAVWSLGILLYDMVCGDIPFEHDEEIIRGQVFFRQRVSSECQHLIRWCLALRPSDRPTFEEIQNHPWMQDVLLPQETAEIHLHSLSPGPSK

Pim2 kinase = Pim2 kinase (Homo sapiens, UniProt Q9P1W9); assay: Pim2 ATP depletion assay; assay type: biochemical; details: read-out: IC50 (μM) PIM2;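 also: Luciferase-based luminescent readout of ATP remaining after PIM2 phosphorylates a BAD peptide, final 5 nM enzyme, 4 µM ATP, 10 µM peptide, 2.5% DMSO, run to roughly half ATP consumption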
Sequence of Pim2 kinase (Q9P1W9 whole entry): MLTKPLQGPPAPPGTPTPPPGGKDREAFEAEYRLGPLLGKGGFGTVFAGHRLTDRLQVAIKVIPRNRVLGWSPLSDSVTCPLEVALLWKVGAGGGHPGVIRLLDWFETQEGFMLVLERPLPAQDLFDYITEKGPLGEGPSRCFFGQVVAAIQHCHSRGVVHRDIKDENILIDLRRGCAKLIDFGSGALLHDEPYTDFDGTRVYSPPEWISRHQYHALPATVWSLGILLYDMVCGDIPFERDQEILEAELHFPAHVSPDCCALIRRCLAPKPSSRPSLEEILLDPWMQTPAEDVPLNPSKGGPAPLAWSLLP

Pim3 kinase = Pim3 kinase (Homo sapiens, UniProt Q86V86); assay: Pim3 ATP depletion assay; assay type: biochemical; details: read-out: IC50 (μM) PIM3
KDR kinase = KDR kinase (Homo sapiens, UniProt P35968); assay: KDR AlphaScreen assay; details: KDR IC50 (μM)
Sequence of KDR kinase (P35968 20-1356): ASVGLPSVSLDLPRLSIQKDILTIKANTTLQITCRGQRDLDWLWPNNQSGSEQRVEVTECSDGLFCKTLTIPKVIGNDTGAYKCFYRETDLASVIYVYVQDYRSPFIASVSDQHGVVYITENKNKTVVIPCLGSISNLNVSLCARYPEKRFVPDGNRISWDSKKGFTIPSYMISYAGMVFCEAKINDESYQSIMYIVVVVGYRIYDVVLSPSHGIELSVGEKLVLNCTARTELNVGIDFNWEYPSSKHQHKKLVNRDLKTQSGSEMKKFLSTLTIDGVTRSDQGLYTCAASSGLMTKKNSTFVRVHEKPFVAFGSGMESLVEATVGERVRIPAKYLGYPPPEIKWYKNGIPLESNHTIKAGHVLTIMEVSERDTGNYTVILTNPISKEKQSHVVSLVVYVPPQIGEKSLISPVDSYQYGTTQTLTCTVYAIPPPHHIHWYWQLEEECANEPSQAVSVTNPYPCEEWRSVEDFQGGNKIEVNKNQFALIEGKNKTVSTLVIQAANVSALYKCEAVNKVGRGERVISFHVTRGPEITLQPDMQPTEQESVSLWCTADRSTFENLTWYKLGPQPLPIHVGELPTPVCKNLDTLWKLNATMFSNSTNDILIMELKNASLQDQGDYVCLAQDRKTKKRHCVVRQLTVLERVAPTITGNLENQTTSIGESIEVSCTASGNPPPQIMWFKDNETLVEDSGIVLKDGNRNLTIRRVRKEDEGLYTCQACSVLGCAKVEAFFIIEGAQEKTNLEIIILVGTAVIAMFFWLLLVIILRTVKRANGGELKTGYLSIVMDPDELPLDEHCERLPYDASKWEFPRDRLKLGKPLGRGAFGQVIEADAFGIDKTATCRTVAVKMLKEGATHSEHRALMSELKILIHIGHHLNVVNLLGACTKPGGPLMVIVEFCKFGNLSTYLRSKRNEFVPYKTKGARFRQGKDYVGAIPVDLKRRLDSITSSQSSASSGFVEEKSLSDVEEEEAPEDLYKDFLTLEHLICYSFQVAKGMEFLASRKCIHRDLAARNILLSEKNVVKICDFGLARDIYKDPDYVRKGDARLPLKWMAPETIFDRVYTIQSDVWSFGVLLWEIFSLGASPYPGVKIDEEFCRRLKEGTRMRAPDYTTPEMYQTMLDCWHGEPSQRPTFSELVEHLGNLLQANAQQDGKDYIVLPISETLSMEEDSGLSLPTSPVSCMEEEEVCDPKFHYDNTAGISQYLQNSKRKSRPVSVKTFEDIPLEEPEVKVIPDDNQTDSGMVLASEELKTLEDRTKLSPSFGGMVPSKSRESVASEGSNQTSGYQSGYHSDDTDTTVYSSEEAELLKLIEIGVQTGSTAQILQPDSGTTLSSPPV

Structure (SMILES)	EC50 (HEL 92.1.7 cells) [µM]	IC50 [1] [nM]	EC50 (PC3 cells) [µM]	IC50 (Pim1 kinase) [µM]	IC50 (Pim2 kinase) [µM]	IC50 (Pim3 kinase) [µM]	IC50 (KDR kinase) [µM]
Nc1ccc(-c2ccncc2Cl)nc1C(=O)Nc1cnccc1N1CCC[C@H](N)C1 [Example 422, 5-amino-3′-chloro-[2,4′]bi-pyridinyl-6-carboxylic acid ((S)-3-amino-3,4,5,6-tetrahydro-2H-[1,4′]bipyridinyl-3′-yl)-amide]	1 to 5	10000 to 25000	> 10	< 1	< 1	< 1	> 25
Nc1ccc(-c2cccc(F)c2F)nc1C(=O)Nc1cnccc1N1CCC[C@H](N)C1 [Example 424, 3-amino-6-(2,3-difluoro-phenyl)-pyridine-2-carboxylic acid ((S)-3-amino-3,4,5,6-tetrahydro-2H-[1,4′]bipyridinyl-3′-yl)-amide]	1 to 5	1000 to 10000	5 to 10	< 1	< 1	< 1	> 25
Nc1ccc(-c2cc(C(=O)Nc3ccccc3)ccc2F)nc1C(=O)Nc1cnccc1N1CCC[C@H](N)C1 [Example 323, 3-amino-6-(2-fluoro-5-phenylcarbamoyl-phenyl)-pyridine-2-carboxylic acid ((S)-3-amino-3,4,5,6-tetra-hydro-2H-[1,4′]bipyridinyl-3′-yl)-amide]	< 1		1 to 5	< 1	< 1	< 1	
COc1ccncc1-c1ccc(N)c(C(=O)Nc2cnccc2N2CCC[C@H](N)C2)n1 [Example 421, 5-amino-4′-methoxy-[2,3′]bi-pyridinyl-6-carboxylic acid ((S)-3-amino-3,4,5,6-tetrahydro-2H-[1,4′]bipyridinyl-3′-yl)-amide]	1 to 5		> 10	< 1	< 1	< 1	
Nc1nccnc1C(=O)Nc1ccncc1N1CCCC(N)C1 (stereo not drawn) [Example 173, 3-amino-N-[3-(3-aminopiperidin-1-yl)pyridin-4-yl]pyrazine-2-carboxamide]	1 to 5	< 1000	5 to 10	< 1	< 1	< 1	10 to 25
Nc1ncc(-c2ccccc2Oc2ccccc2)nc1C(=O)Nc1cnccc1N1CCC(N)CC1 [Example 365, 3-amino-6-(2-phenoxy-phenyl)-pyrazine-2-carboxylic acid (4-amino-3,4,5,6-tetra-hydro-2H-[1,4′]bipyridinyl-3′-yl)-amide]		< 1000	> 10	< 1	1 to 10	< 1	< 1
Cc1ccc(NC(=O)c2nccnc2N)c(N2CCC(N)CC2)c1 [Example 228, 3-amino-N-[2-(4-aminopiperidin-1-yl)-4-methylphenyl]pyrazine-2-carboxamide]		< 1000	5 to 10	< 1	10 to 25	< 1	10 to 25
Nc1ncc(-c2ccccc2)nc1C(=O)Nc1ccccc1N1CCNCC1 [Example 382, 3-amino-6-phenyl-pyrazine-2-carboxylic acid (2-piperazin-1-yl-phenyl)-amide]		< 1000	1 to 5	< 1	1 to 10	< 1	1 to 10
Cc1cnc(N)c(C(=O)Nc2ccccc2N2CCC(N)CC2)n1 [Example 378, 3-amino-N-[2-(4-amino-piperidin-1-yl)phenyl]-6-methylpyrazine-2-carboxamide]		< 1000	1 to 5	< 1	10 to 25	1 to 10	> 25
Nc1nccnc1C(=O)Nc1cc(Cl)ccc1N1CCC(N)CC1 [Example 214, 3-amino-N-[2-(4-aminopiperidin-1-yl)-5-chlorophenyl]pyrazine-2-carboxamide]		< 1000	1 to 5	< 1	1 to 10	< 1	10 to 25
Cc1cnc(N)c(C(=O)Nc2ccccc2N2CCCC(N)C2)n1 (stereo not drawn) [Example 376, 3-amino-6-methyl-pyrazine-2-carboxylic acid [2-(3-amino-piperidin-1-yl)-phenyl]-amide]		< 1000	> 10	< 1	< 1	< 1	> 25
Nc1nccnc1C(=O)Nc1ccccc1N1CCCC(N)C1 (stereo not drawn) [Example 195, 3-amino-N-[2-(3-aminopiperidin-1-yl)phenyl]pyrazine-2-carboxamide]		< 1000	> 10	< 1	< 1	< 1	> 25
Nc1ncc(-c2ccccc2)nc1C(=O)Nc1ccccc1N1CCCC(N)C1 (stereo not drawn) [Example 372, 3-amino-6-phenyl-pyrazine-2-carboxylic acid [2-(3-amino-piperidin-1-yl)-phenyl]-amide]		< 1000	1 to 5	< 1	< 1	< 1	< 1
COc1ccc(-c2cnc(N)c(C(=O)Nc3cnccc3N3CCNCC3)n2)cc1 [Example 362, 3-amino-6-(4-methoxy-phenyl)-pyrazine-2-carboxylic acid (4-piperazin-1-yl-pyridin-3-yl)-amide]		< 1000	< 1	< 1	< 1	< 1	< 1
Nc1ncc(Br)nc1C(=O)Nc1ccccc1N1CCC(N)CC1 [Example 205, 3-amino-N-[2-(4-aminopiperidin-1-yl)phenyl]-6-bromopyrazine-2-carboxamide]		< 1000	< 1	< 1	< 1	< 1	1 to 10
COc1ccc(N2CCC(N)CC2)c(NC(=O)c2nccnc2N)c1 [Example 222, 3-amino-N-[2-(4-aminopiperidin-1-yl)-5-methoxyphenyl]pyrazine-2-carboxamide]		< 1000	> 10	< 1	10 to 25	< 1	> 25
Nc1nccnc1C(=O)Nc1cnccc1N1CCC[C@H](N)C1 [Example 176]	1 to 5	< 1000	1 to 5		< 1	< 1	1 to 10
CN(C)C1CCN(c2ccncc2NC(=O)c2nccnc2N)CC1 [Example 126, 3-amino-N-{4-[4-(dimethyl-amino)piperidin-1-yl]pyridin-3-yl}pyrazine-2-carboxamide]		< 1000	5 to 10	< 1	1 to 10	< 1	1 to 10
Nc1ncc(-c2ccccc2C(F)(F)F)nc1C(=O)Nc1cnccc1N1CCCC(N)C1 (stereo not drawn) [Example 348, 3-amino-6-(2-trifluoromethyl-phenyl)-pyrazine-2-carboxylic acid (3-amino-3,4,5,6-tetra-hydro-2H-[1,4′]bipyridinyl-3′-yl)-amide]	< 1	< 1000	1 to 5	< 1		< 1	
